Laboratory results as given in patent US20140364431A1, “Quinoline and cinnoline derivatives and their applications” (Shenyang Pharmaceutical University, priority 2011, published 2014).
In brackets after ≈: the same amount, converted by molar mass. Like-named read-outs stand apart in the source and are kept apart here.

Columns and labels:
[1] = tested on: HT-29 (colon cancer cell); assay: In vitro anti-tumor cellular activity (MTT), HT-29; type: cell-based, human; settings: for IC50: Homo sapiens, read-out: HT-29 IC50
[2] = tested on: SMMC-7721 (hepatoma cell); assay: In vitro anti-tumor cellular activity (MTT), SMMC-7721; type: cell-based, human; settings: for IC50: Homo sapiens, read-out: SMMC-7721 IC50
[3] = tested on: H460 (human lung cancer cell); assay: In vitro anti-tumor cellular activity (MTT), H460; type: cell-based; settings: for IC50: Homo sapiens, read-out: H460 IC50
[4] = tested on: MKN-45 (human gastric carcinoma cell); assay: In vitro anti-tumor cellular activity (MTT), MKN-45; type: cell-based; settings: for IC50: Homo sapiens, read-out: MKN-45 IC50
[5] = tested on: U87MG (Human malignant glioblastoma cells); assay: In vitro anti-tumor cellular activity (MTT), U87MG; type: cell-based; settings: for IC50: Homo sapiens, U-87 MG, read-out: U87MG IC50
[6] = biological target: T1, c-Met (His-tagged recombinant human Met (Amino acids 974-ends)) (Homo sapiens, UniProt P08581); assay: c-Met kinase assay (ELISA); type: biochemical; settings: 50 pM c-Met, 5 μM ATP, 20 min
T1 construct: His-tagged recombinant human Met (Amino acids 974-ends); His; host or cells: baculovirus expression
T1 sequence (P08581 974-1390 limits assumed): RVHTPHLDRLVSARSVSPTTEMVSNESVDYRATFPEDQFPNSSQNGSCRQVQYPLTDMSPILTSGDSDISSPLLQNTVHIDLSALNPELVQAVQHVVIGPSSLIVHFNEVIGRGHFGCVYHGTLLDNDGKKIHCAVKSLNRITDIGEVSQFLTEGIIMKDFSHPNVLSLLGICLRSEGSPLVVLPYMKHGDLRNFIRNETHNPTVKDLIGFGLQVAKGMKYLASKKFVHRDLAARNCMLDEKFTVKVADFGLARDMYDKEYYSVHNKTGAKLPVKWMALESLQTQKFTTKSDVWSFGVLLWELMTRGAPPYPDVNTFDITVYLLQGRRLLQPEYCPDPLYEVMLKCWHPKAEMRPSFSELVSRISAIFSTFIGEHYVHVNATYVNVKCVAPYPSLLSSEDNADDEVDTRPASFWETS
Description: c-Met kinase activity was measured with an ELISA reader.
The reaction mixture was removed by washing with 0.2 μg/mL conjugated horseradish peroxidase (HRP) monoclonal antibody specific for phosphotyrosine (PY20) detecting phosphorylation of the substrate polymer. 1M phosphoric acid was added to terminate the color, the chromogenic substrate (TMB) was tested by spectrophotometry at 450 nm.

[7] = tested on: human tumor cell lines (such as human lung cancer cells, human gastric cancer cells, etc.); settings: cited from earlier work

## COc1cc2c(Oc3ccc(NC(=O)c4nn(-c5ccccc5OC(F)(F)F)c5ccccc5c4=O)cc3F)ccnc2cc1OCCCN1CCCCC1 [Example 38, N-(3-fluoro-4-((6-methoxy-7-(3-(piperidin-1-yl)propoxy)quinolin-4-yl)oxy)phenyl)-1-(2-(trifluoromethoxy)phenyl)-4-oxo-1,4-dihydrocinnoline-3-carboxamide]
[1]; MTT, 72 hours, HT-29
  IC50: 1.8 mg/L (≈ 2.38 µM)
[2]; MTT, 72 hours, SMMC-7721
  IC50: 0.98 mg/L (≈ 1.29 µM)
[3]; NCI-H460, MTT, 72 hours, H460
  IC50: 1.6 mg/L (≈ 2.11 µM)
[4]; MTT, 72 hours, MKN-45
  IC50: 2.1 mg/L (≈ 2.77 µM)
[5]; MTT, 72 hours, U87MG
  IC50: 1.1 mg/L (≈ 1.45 µM)
[6]
  IC50: 1.45 µM

## COc1cc2c(Oc3ccc(NC(=O)c4cn(-c5ccccc5Cl)c5ccccc5c4=O)cc3F)ccnc2cc1OCCCN1CCN(C)CC1 [Example 56, N-(3-fluoro-4-((6-methoxy-7-(3-(4-methylpiperazin-1-yl)propoxy)quinolin-4-yl)oxy)phenyl)-1-(2-chlorophenyl)-4-oxo-1,4-dihydroquinoline-3-carboxamide]
[1]; MTT, 72 hours, HT-29
  IC50: 0.2 mg/L (≈ 0.277 µM)
[2]; MTT, 72 hours, SMMC-7721
  IC50: 0.74 mg/L (≈ 1.02 µM)
[3]; NCI-H460, MTT, 72 hours, H460
  IC50: 0.75 mg/L (≈ 1.04 µM)
[4]; MTT, 72 hours, MKN-45
  IC50: 0.21 mg/L (≈ 0.291 µM)
[5]; MTT, 72 hours, U87MG
  IC50: 0.12 mg/L (≈ 0.166 µM)
[6]
  IC50: 0.138 µM

## COc1cc2c(Oc3ccc(NC(=O)c4nn(-c5ccc(F)cc5Br)c5ccccc5c4=O)cc3F)ccnc2cc1OCCCN1CCN(C)CC1 [Example 19, N-(3-fluoro-4-((6-methoxy-7-(3-(4-methylpiperazin-1-yl)propoxy)quinolin-4-yl)oxy)phenyl)-1-(2-bromo-4-fluorophenyl)-4-oxo-1,4-dihydrocinnoline-3-carboxamide]
[1]; MTT, 72 hours, HT-29
  IC50: 0.54 mg/L (≈ 0.687 µM)
[2]; MTT, 72 hours, SMMC-7721
  IC50: 1.6 mg/L (≈ 2.04 µM)
[3]; NCI-H460, MTT, 72 hours, H460
  IC50: 2.2 mg/L (≈ 2.8 µM)
[4]; MTT, 72 hours, MKN-45
  IC50: 0.86 mg/L (≈ 1.09 µM)
[5]; MTT, 72 hours, U87MG
  IC50: 1.2 mg/L (≈ 1.53 µM)
[6]
  IC50: 1.53 µM

## N-(3-fluoro-4-((6-methoxy-7-(3-(pyrrolidin-1-yl)propoxy)quinolin-4-yl)oxy)phenyl)-1-(2-c hlorophenyl)-4-oxo-1,4-dihydrocinnoline-3-carboxamide dihydrochloride [Example 16]
[1]; MTT, 72 hours, HT-29
  HT-29 IC50: 0.57 mg/L
[2]; MTT, 72 hours, SMMC-7721
  SMMC-7721 IC50: 0.45 mg/L
[3]; MTT, 72 hours, H460
  H460 IC50: 0.69 mg/L
[4]; MTT, 72 hours, MKN-45
  MKN-45 IC50: 1.1 mg/L
[5]; MTT, 72 hours, U87MG
  U87MG IC50: 0.2 mg/L
[6]
  c-Met IC50: 0.9 mg/L

## COc1cc2c(Oc3ccc(NC(=O)C4(C(=O)Nc5ccc(F)cc5)CC4)cc3F)ccnc2cc1OCCCN1CCOCC1 [Foretinib]
[7]
  IC50 against a variety of human tumor cell lines: 0.004 mg/L

## COc1cc2c(Oc3ccc(NC(=O)c4nn(-c5ccc(Br)cc5F)c5ccccc5c4=O)cc3F)cnnc2cc1OCCCN1CCOCC1 [Example 68, N-(3-fluoro-4-((6-methoxy-7-(3-(morpholin-4-yl)propoxy)cinnolin-4-yl)oxy)phenyl)-1-(4-bromo-2-fluorophenyl)-4-oxo-1,4-dihydrocinnoline-3-carboxamide]
[1]; MTT, 72 hours, HT-29
  IC50: 2.1 mg/L (≈ 2.71 µM)
[2]; MTT, 72 hours, SMMC-7721
  IC50: 2.9 mg/L (≈ 3.75 µM)
[3]; NCI-H460, MTT, 72 hours, H460
  IC50: 1.5 mg/L (≈ 1.94 µM)
[4]; MTT, 72 hours, MKN-45
  IC50: 2.5 mg/L (≈ 3.23 µM)
[5]; MTT, 72 hours, U87MG
  IC50: 1.3 mg/L (≈ 1.68 µM)
[6]
  IC50: 1.16 µM

## COc1cc2c(Oc3ccc(NC(=O)c4nn(-c5ccc(Cl)cc5)c5ccccc5c4=O)cc3F)cnnc2cc1OCCCN1CCOCC1 [Example 66, N-(3-fluoro-4-((6-methoxy-7-(3-(morpholin-4-yl)propoxy)cinnolin-4-yl)oxy)phenyl)-1-(4-chlorophenyl)-4-oxo-1,4-dihydrocinnoline-3-carboxamide]
[1]; MTT, 72 hours, HT-29
  IC50: 1.4 mg/L (≈ 1.97 µM)
[2]; MTT, 72 hours, SMMC-7721
  IC50: 1.7 mg/L (≈ 2.39 µM)
[3]; NCI-H460, MTT, 72 hours, H460
  IC50: 0.89 mg/L (≈ 1.25 µM)
[4]; MTT, 72 hours, MKN-45
  IC50: 2.4 mg/L (≈ 3.37 µM)
[5]; MTT, 72 hours, U87MG
  IC50: 2.1 mg/L (≈ 2.95 µM)
[6]
  IC50: 0.562 µM

## N-(3-fluoro-4-((6-methoxy-7-(3-(piperidin-1-yl)propoxy)quinolin-4-yl)oxy)phenyl)-1-(2-fl uorophenyl)-4-oxo-1,4-dihydrocinnoline-3-carboxamide [Example 7]
[1]; MTT, 72 hours, HT-29
  HT-29 IC50: 0.82 mg/L
[2]; MTT, 72 hours, SMMC-7721
  SMMC-7721 IC50: 0.63 mg/L
[3]; MTT, 72 hours, H460
  H460 IC50: 1.7 mg/L
[4]; MTT, 72 hours, MKN-45
  MKN-45 IC50: 1.4 mg/L
[5]; MTT, 72 hours, U87MG
  U87MG IC50: 1.5 mg/L
[6]
  c-Met IC50: 0.5 mg/L

## COc1cc2c(Oc3ccc(NC(=O)c4cn(-c5ccccc5Cl)c5ccccc5c4=O)cc3F)ccnc2cc1OCCCN1CCC(C)CC1 [Example 54, N-(3-fluoro-4-((6-methoxy-7-(3-(4-methylpiperidin-1-yl)propoxy)quinolin-4-yl)oxy)phenyl)-1-(2-chlorophenyl)-4-oxo-1,4-dihydroquinoline-3-carboxamide]
[1]; MTT, 72 hours, HT-29
  IC50: 0.63 mg/L (≈ 0.874 µM)
[2]; MTT, 72 hours, SMMC-7721
  IC50: 0.52 mg/L (≈ 0.721 µM)
[3]; NCI-H460, MTT, 72 hours, H460
  IC50: 0.63 mg/L (≈ 0.874 µM)
[4]; MTT, 72 hours, MKN-45
  IC50: 0.49 mg/L (≈ 0.679 µM)
[5]; MTT, 72 hours, U87MG
  IC50: 0.14 mg/L (≈ 0.194 µM)
[6]
  IC50: 0.971 µM

## COc1cc2c(Oc3ccc(NC(=O)c4nn(-c5ccc(Br)cc5)c5ccccc5c4=O)cc3F)ccnc2cc1OCCCN1CCOCC1 [Example 39, N-(3-fluoro-4-((6-methoxy-7-(3-(morpholin-4-yl)propoxy)quinolin-4-yl)oxy)phenyl)-1-(4-bromophenyl)-4-oxo-1,4-dihydrocinnoline-3-carboxamide]
[1]; HT-29, 72 h
  IC50: 0.87 mg/L (≈ 1.15 µM)
[2]; SMMC-7721, 72 h
  IC50: 2.1 mg/L (≈ 2.78 µM)
[3]; NCI-H460, 72 h
  IC50: 2.3 mg/L (≈ 3.05 µM)
[4]; MKN-45, 72 h
  IC50: 1.4 mg/L (≈ 1.86 µM)
[5]; 72 h
  IC50: 1.8 mg/L (≈ 2.39 µM)
[6]
  IC50: 1.33 µM

## COc1cc2c(Oc3ccc(NC(=O)c4cn(-c5ccccc5Cl)c5ccccc5c4=O)cc3F)ccnc2cc1OCCCN1CCCC1 [Example 55, N-(3-fluoro-4-((6-methoxy-7-(3-(pyrrolidin-1-yl)propoxy)quinolin-4-yl)oxy)phenyl)-1-(2-chlorophenyl)-4-oxo-1,4-dihydroquinoline-3-carboxamide]
[1]; HT-29, 72 h
  IC50: 0.37 mg/L (≈ 0.534 µM)
[2]; SMMC-7721, 72 h
  IC50: 0.53 mg/L (≈ 0.765 µM)
[3]; NCI-H460, 72 h
  IC50: 0.74 mg/L (≈ 1.07 µM)
[4]; MKN-45, 72 h
  IC50: 0.29 mg/L (≈ 0.418 µM)
[5]; 72 h
  IC50: 0.18 mg/L (≈ 0.26 µM)
[6]
  IC50: 1.3 µM

## COc1cc2c(Oc3ccc(NC(=O)c4nn(-c5ccc(C)cc5C)c5ccccc5c4=O)cc3F)ccnc2cc1OCCCN1CCN(C)CC1 [Example 26, N-(3-fluoro-4-((6-methoxy-7-(3-(4-methylpiperazin-1-yl)propoxy)quinolin-4-yl)oxy)phenyl)-1-(2,4-dimethylphenyl)-4-oxo-1,4-dihydrocimloline-3-carboxamide]
[1]; MTT, 72 hours, HT-29
  IC50: 1.4 mg/L (≈ 1.95 µM)
[2]; MTT, 72 hours, SMMC-7721
  IC50: 1.6 mg/L (≈ 2.23 µM)
[3]; NCI-H460, MTT, 72 hours, H460
  IC50: 0.8 mg/L (≈ 1.12 µM)
[4]; MTT, 72 hours, MKN-45
  IC50: 0.7 mg/L (≈ 0.977 µM)
[5]; MTT, 72 hours, U87MG
  IC50: 1.8 mg/L (≈ 2.51 µM)
[6]
  IC50: 0.419 µM

## COc1cc2c(Oc3ccc(NC(=O)c4nn(-c5ccc(Cl)cc5Cl)c5ccccc5c4=O)cc3F)ccnc2cc1OCCCN1CCC(C)CC1 [Example 28, N-(3-fluoro-4-((6-methoxy-7-(3-(4-methylpiperidin-1-yl)propoxy)quinolin-4-yl)oxy)phenyl)-1-(2,4-dichlorophenyl)-4-oxo-1,4-dihydrocinnoline-3-carboxamide]
[1]; HT-29, 72 h
  IC50: 0.9 mg/L (≈ 1.19 µM)
[2]; SMMC-7721, 72 h
  IC50: 1.3 mg/L (≈ 1.72 µM)
[3]; NCI-H460, 72 h
  IC50: 2.3 mg/L (≈ 3.04 µM)
[4]; MKN-45, 72 h
  IC50: 1.8 mg/L (≈ 2.38 µM)
[5]; 72 h
  IC50: 1.6 mg/L (≈ 2.11 µM)
[6]
  IC50: 1.72 µM

## COc1cc2c(Oc3ccc(NC(=O)c4cn(-c5ccccc5F)c5ccccc5c4=O)cc3F)ccnc2cc1OCCCN1CCCC1 [Example 51, N-(3-fluoro-4-((6-methoxy-7-(3-(pyrrolidin-1-yl)propoxy)quinolin-4-yl)oxy)phenyl)-1-(2-fluorophenyl)-4-oxo-1,4-dihydroquinoline-3-carboxamide]
[1]; MTT, 72 hours, HT-29
  IC50: 0.41 mg/L (≈ 0.606 µM)
[2]; MTT, 72 hours, SMMC-7721
  IC50: 0.53 mg/L (≈ 0.783 µM)
[3]; NCI-H460, MTT, 72 hours, H460
  IC50: 0.58 mg/L (≈ 0.857 µM)
[4]; MTT, 72 hours, MKN-45
  IC50: 0.24 mg/L (≈ 0.355 µM)
[5]; MTT, 72 hours, U87MG
  IC50: 0.28 mg/L (≈ 0.414 µM)
[6]
  IC50: 0.296 µM
